Test results from patent US20100298348A1, “Method of Decreasing Ubiquitylated Protein Levels” (priority 2009, published 2010).
Where two headings read alike, the source gives them in different places.

Columns and labels:
Aβ42 = experiment: Sandwich ELISA of Aβ42 in cynomolgus monkey hippocampal lysates, 9-month study; type: in vivo; settings: male cynomolgus monkeys, 9 months oral
Procedure: (§1) Male cynomolgus monkeys were treated for 9 months with 0, 10, 30 or 100 mg/kg/day ST101 with once daily oral drug administration. Hippocampal brain samples were analyzed in Western blots and ELISAs for APP fragments and Aβ. […] Reductions in a ˜55-kDa fragment were also seen with treatment in these groups. Black outlines depict image level enhancement in Adobe Photoshop CS4, to better visualize weak signals. […] However, long exposures reveal the presence of the 17-kDa APP fragment only in treated monkeys (antibody CT20, Calbiochem). This fragment was not detected in either the 30 or 10 mg/kg/day ST101 groups. Error bars indicate SEM (standard error of the mean) and * indicates statistical significance versus control (p<0.05). (S: ST101-treated animals, versus C: control animals).

ubiquitylated proteins = experiment: Anti-ubiquitin Western blot of 3xTg-AD mouse brain; type: in vivo
Procedure: Brain extracts from 12-month-old 3xTg-AD mice that had been treated with ST101 (S) at 5/mg/kg/day in drinking water over 2 months were analyzed in Western blots using an anti-ubiquitin antibody (Dako no. Z0448). […] The control (C) samples show a typical high molecular weight “smear” representing a mixture of ubiquitylated proteins.

[1] = tested on: LC3, Beclin 1, LAMP2A, cathepsin D; experiment: Western blots of autophagy and lysosomal degradation mediators in 3xTg-AD mouse brain; type: in vivo; settings: 3xTg-AD mice 12 months old, 5 mg/kg/day, 2 months
Procedure: The concentrations of several proteins involved in these pathways, specifically LC3, Beclin 1 (macroautophagy), LAMP2A (chaperone mediated autophagy), and cathepsin D (lysosomal protease) were measured in Western blots from 3xTg-AD mouse brains (FIG. 18, extracts from the same animals used in Examples 15-17.

SAM-P8 mice = settings: vs control mice, cited from earlier work
SAMP8 mouse = settings: cited from earlier work
[2] = tested on: acetylcholine (ACh) and dopamine; experiment: Acetylcholine and dopamine release and extracellular concentrations
[3] = Chronic and reproductive toxicity studies; type: in vivo
sAPP-beta = experiment: Western blot of sAPP-beta in 3xTg-AD mouse brain; type: in vivo; settings: 3xTg-AD mice ~14.5 months old, 5 mg/kg/day in drinking water, 2 months as printed
Procedure: FIG. 10B describes a reduction of fragment C99. C99 is created by BACE cleavage which leads to release of soluble APP, specifically sAPP-beta. […] The Western blot was obtained using an sAPP-beta specific antibody in brain extracts from ST101 treated 3×TG-AD mice (S) versus control mice (C). Animals were approximately 14.5 months old at sacrifice after 2 months of treatment with ST101 at 5 mg/kg/day in drinking water.

Neuro2a cells = experiment: Aβ production by Neuro2a cells, ELISA of culture medium; type: cell-based, murine; settings: 24 hours treatment, vs control
Procedure: Neuro2a is a murine neuroblastoma cell line that is known to produce amyloid peptides Aβ1-40 and Aβ1-42 in amounts measurable by ELISA assays. These forms of Aβ have been correlated with the pathology in AD brain and Aβ1-42 in particular is postulated to have the ability to block a7 nicotinic receptors and to produce direct neurotoxic effects. Neuro2a cells were treated for 24 hours with ST101 added to the tissue culture medium. Tissue culture medium was collected and analyzed by ELISA for the presence of Aβ.

beta-tubulin = experiment: Western blot of beta-tubulin in cynomolgus monkey hippocampus; type: in vivo; settings: cynomolgus monkeys of Example 19, hippocampal brain samples
From the text: The effects on tubulin were confirmed in the group of cynomolgus monkeys described in example 19.

α-tubulin = experiment: Western blot of α-tubulin and acetylated α-tubulin in 3xTg-AD mouse brain; type: in vivo; settings: 3xTg-AD mice 12 months old, 5 mg/kg/day, 2 months
From the text: The overexposed band near the bottom of the figure represents α-tubulin. Above this band a ladder of immuno-reactive bands was detected by the antibody.

3xTg-AD mice = experiment: Morris Water Maze in 3xTg-AD mice; type: in vivo, mouse; settings: 2 months; for Morris Water Maze crosses over former platform location, retention testing / Morris Water Maze latency, retention testing: 3xTg-AD mice, 5 mg/kg/day
Procedure: 3xTg-AD mice of approximately one year of age were treated for 2 months with ST101. An average dose of 5 mg/kg/day was administered in drinking water (calculated dose, based on mean water consumption). Behavioral effects were tested by assessing performance on the Morris Water Maze. Biochemical effects were examined by measuring brain content of Aβ and APP by ELISA and Western Blot.
Behavioral Effects: Performance of 3xTg-AD Mice in the Morris Water Maze (MWM), adapted from Roozendaal et al., Proc. Natl. Acad. Sci. U.S.A. 100: 1328-1333 (2003).
The MWM tests both spatial memory (i.e. hippocampus dependent) and cued learning (i.e. non-hippocampal) in rodents. The maze is a circular tank filled with opaque water. Mice are placed in the water and must swim to find and escape onto a platform submerged 1.5 cm beneath the surface of the water. The time (in seconds) required to find the platform is recorded. Animals rely on visual cues in the room containing the tank in order to find the platform on successive challenges. Training was conducted daily for seven consecutive days.
Retention of training was assessed twice, 24 and 72 hours after the final training trial. Animals were subjected to a 60-second free swim in the tank with the platform removed. Parameters measured included (1) latency: time required to reach the former platform location and (2) crosses: the number of times the animal swam across the former platform location.

ADAM10 = experiment: Western blot of ADAM10 in cynomolgus monkey hippocampus; type: in vivo; settings: male cynomolgus monkeys, 9 months oral, 100 mg/kg/day
Procedure: as §1

O=C1N=C2C=CC=CN2C12Cc1ccccc1C2 [ST101, spiro(imidazo[1,2-a]pyridin-2(3H)-one-3,2′-indan)]
Aβ42 in hippocampal lysates (Aβ42; 10 mg/kg/day): significant increases | Aβ42 in hippocampal lysates (Aβ42; 30 mg/kg/day): significant decreases | Aβ42 in hippocampal lysates (Aβ42; 100 mg/kg/day): significant decreases | ubiquitylated proteins (ubiquitylated proteins; 3xTg-AD mice 12 months old, 5 mg/kg/day in drinking water, 2 months): profound reduction | monomeric ubiquitin concentrations (ubiquitylated proteins; 3xTg-AD mice 12 months old, 5 mg/kg/day, 2 months, data not shown): largely unaffected | ubiquitylated proteins (ubiquitylated proteins; 3xTg-AD mice 14.5 months old, 5 mg/kg/day, ~2.5 months): significant reduction | Beclin 1 concentration [1]: did not reveal any obvious differences | LAMP2A concentration [1]: did not reveal any obvious differences | LC3 concentration [1]: did not reveal any obvious differences | cathepsin D concentration [1]: did not reveal any obvious differences | senescence scores (SAM-P8 mice; 16 weeks of treatment): significant improvement | senescence scores (SAM-P8 mice; 32 weeks of treatment): significant improvement | accumulation of Aβ-like deposits in brain tissue (SAMP8 mouse): decreased | learning and memory functions (SAMP8 mouse): improvement | nicotine-stimulated release of acetylcholine (ACh) [2]: potentiates | extracellular ACh concentrations ([2]; cerebral cortex): increases | extracellular concentration of ACh ([2]; hippocampus): increases | extracellular concentration of dopamine ([2]; hippocampus): increases | toxicity in chronic toxicity studies ([3]; high doses): very little toxicity | toxicity in reproductive toxicity studies ([3]; monkey, in vivo): very little toxicity | safety in rodent and monkey toxicity studies ([3]; up to 6 months, doses up to approximately 100-fold higher than in 3xTg-AD mice): proven safe | sAPP-beta (sAPP-beta): concomitant reduction | Aβ1-40 concentration in cell culture medium (Neuro2a cells): without major effects | Aβ1-42 concentration in cell culture medium (Neuro2a cells): significantly reduced | beta-tubulin degradation products (beta-tubulin): increase | tubulin degradation products (α-tubulin; acetylated α-tubulin antibody): reduced | high molecular weight ladder of α-tubulin immuno-reactive bands (presumably ubiquitylated tubulin) (α-tubulin; α-tubulin antibody): either absent or significantly reduced | Morris Water Maze latency during training (3xTg-AD mice; 3xTg-AD mice ~1 year old, 5 mg/kg/day in drinking water, successive days of 7-day training, vs controls): greater reductions in latency | Morris Water Maze crosses over former platform location, retention testing (3xTg-AD mice; 24 hours after final training): increases in crosses | Morris Water Maze latency, retention testing (3xTg-AD mice; 24 hours after final training): reductions in latency | Morris Water Maze crosses over former platform location, retention testing (3xTg-AD mice; 72 hours after final training): increases in crosses | Morris Water Maze latency, retention testing (3xTg-AD mice; 72 hours after final training): reductions in latency | ADAM10 level (ADAM10): no differences
